Mass density data for twelve molecules are collected here from the NIST ThermoML archive (doi:10.1021/je900542y).

Several values for one entry are separate records, joined by “and”; a condition that tells them apart may be missing. Identical values can stand only once. ± gives the expanded uncertainty stated by the source.

The nature of data set [1]: mn = molality of the nth substance listed, in mol/kg. The conditions noted are these: 298.15 K, 101 kPa, Liquid.
The conditions of data set [2]: 298.15 K; 101 kPa; Liquid.

For orientation: mass density means the mass of a sample divided by its volume.

Consider `O=[N+]([O-])c1ccccc1` [nitrobenzene] + CC[N+](CC)(CC)CC.[I-], for which, in data set [1] (m2 = 0), the mass density is 1198.91 ± 0.72 kg/m3.

Regarding `CC(C)=O` [acetone], the mass density in data set [2] is recorded as 783.81 ± 0.5 kg/m3.

Regarding `CC(C)=O` [acetone] + CC[N+](CC)(CC)CC.[I-], the mass density in data set [1] (m2 = 0) stood at 783.81 ± 0.5 kg/m3.

For `CC[N+](CC)(CC)CC.[I-]` [tetraethylammonium iodide] + CO, the mass density in data set [1] (m1 = 0.0001) is 786.38 ± 0.49 kg/m3; in data set [1] (m1 = 0.0002), 786.38 ± 0.49 kg/m3; in data set [1] (m1 = 0.00354), 786.54 ± 0.49 kg/m3; in data set [1] (m1 = 0.003541), 786.54 ± 0.49 kg/m3; in data set [1] (m1 = 0.003542) it was 786.54 ± 0.49 kg/m3; in data set [1] (m1 = 0.007079), 786.69 ± 0.49 kg/m3. Moreover, the mass density in data set [1] (m1 = 0.00708) turned out to be 786.69 ± 0.49 kg/m3; in data set [1] (m1 = 0.007081), 786.69 ± 0.49 kg/m3; in data set [1] (m1 = 0.01062) it was 786.85 ± 0.49 kg/m3; in data set [1] (m1 = 0.01063), 786.85 ± 0.49 kg/m3; in data set [1] (m1 = 0.01416), 787 ± 0.49 kg/m3; in data set [1] (m1 = 0.01417), 787 ± 0.49 kg/m3. Also, the mass density in data set [1] (m1 = 0.0176) was 787.17 ± 0.49 kg/m3 and 787.18 ± 0.49 kg/m3; in data set [1] (m1 = 0.02124) it was 787.31 ± 0.49 kg/m3; in data set [1] (m1 = 0.02832), 787.63 ± 0.49 kg/m3 and 787.62 ± 0.49 kg/m3.

Turning to `CC[N+](CC)(CC)CC.[I-]` [tetraethylammonium iodide] + CC#N, the mass density in data set [1] (m1 = 0.0001) was determined as 776.01 ± 0.6 kg/m3; in data set [1] (m1 = 0.0002), 776.02 ± 0.59 kg/m3; in data set [1] (m1 = 0.00354), 776.16 ± 0.59 kg/m3; in data set [1] (m1 = 0.003541), 776.16 ± 0.59 kg/m3; in data set [1] (m1 = 0.007081), 776.32 ± 0.59 kg/m3; in data set [1] (m1 = 0.007082) it was 776.32 ± 0.59 kg/m3. In addition, the mass density in data set [1] (m1 = 0.01062) is 776.47 ± 0.59 kg/m3; in data set [1] (m1 = 0.01064), 776.46 ± 0.59 kg/m3; in data set [1] (m1 = 0.01416) it was 776.63 ± 0.59 kg/m3; in data set [1] (m1 = 0.01417), 776.61 ± 0.59 kg/m3; in data set [1] (m1 = 0.0176), 776.77 ± 0.59 kg/m3 and 776.78 ± 0.59 kg/m3; in data set [1] (m1 = 0.02124), 776.93 ± 0.59 kg/m3. For the same molecule, the mass density in data set [1] (m1 = 0.02832) is reported as 777.24 ± 0.59 kg/m3.

Regarding `CO` [methanol] + CC[N+](CC)(CC)CC.[I-], the mass density in data set [1] (m2 = 0) is 786.38 ± 0.49 kg/m3.

Consider `CC#N` [acetonitrile] + CC[N+](CC)(CC)CC.[I-], for which the mass density in data set [1] (m2 = 0) is 776.01 ± 0.6 kg/m3.

On to `CC[N+](CC)(CC)CC.[I-]` [tetraethylammonium iodide] + CC(C)=O, for which the mass density is given as 783.81 ± 0.5 kg/m3 in data set [1] (m1 = 0.0001); 783.81 ± 0.5 kg/m3 in data set [1] (m1 = 0.0002); 784.1 ± 0.5 kg/m3 in data set [1] (m1 = 0.00536); 784.11 ± 0.5 kg/m3 in data set [1] (m1 = 0.005361); 784.2 ± 0.49 kg/m3 in data set [1] (m1 = 0.007105); 784.21 ± 0.49 kg/m3 in data set [1] (m1 = 0.007106). Further, the mass density in data set [1] (m1 = 0.007107) is recorded as 784.2 ± 0.49 kg/m3; in data set [1] (m1 = 0.008909), 784.3 ± 0.5 kg/m3; in data set [1] (m1 = 0.00891), 784.3 ± 0.5 kg/m3; in data set [1] (m1 = 0.01242), 784.5 ± 0.49 kg/m3; in data set [1] (m1 = 0.0142), 784.6 ± 0.49 kg/m3; in data set [1] (m1 = 0.0177), 784.81 ± 0.49 kg/m3. Further, the mass density worked out at 784.81 ± 0.49 kg/m3 in data set [1] (m1 = 0.01771), 784.99 ± 0.49 kg/m3 in data set [1] (m1 = 0.02114) and 785 ± 0.49 kg/m3 in data set [1] (m1 = 0.02115).

Turning to `CC[N+](CC)(CC)CC.[I-]` [tetraethylammonium iodide] + O=[N+]([O-])c1ccccc1, the mass density in data set [1] (m1 = 0.0001) turned out to be 1198.91 ± 0.72 kg/m3; in data set [1] (m1 = 0.0002), 1198.91 ± 0.72 kg/m3; in data set [1] (m1 = 0.003538) it was 1198.97 ± 0.72 kg/m3; in data set [1] (m1 = 0.007075) it was 1199.04 ± 0.72 kg/m3; in data set [1] (m1 = 0.0106), 1199.1 ± 0.72 kg/m3; in data set [1] (m1 = 0.01415), 1199.17 ± 0.72 kg/m3. Also, the mass density in data set [1] (m1 = 0.01416) is 1199.17 ± 0.72 kg/m3; in data set [1] (m1 = 0.0177), 1199.23 ± 0.72 kg/m3; in data set [1] (m1 = 0.02119), 1199.29 ± 0.72 kg/m3; in data set [1] (m1 = 0.02469), 1199.36 ± 0.72 kg/m3 and 1199.35 ± 0.72 kg/m3.

Take `O=[N+]([O-])c1ccccc1` [nitrobenzene]: in data set [2], the mass density is recorded as 1198.91 ± 0.72 kg/m3.

As to `CC#N` [acetonitrile], in data set [2], the mass density was 776.01 ± 0.6 kg/m3 and 776.02 ± 0.59 kg/m3.

As for `CO` [methanol], the mass density in data set [2] stood at 786.38 ± 0.49 kg/m3.
